From patent US20260232750A1, “COMPOSITION AND METHOD FOR INHIBITING ADVANCED GLYCATION END PRODUCTS” (ACCESS BUSINESS GROUP INTERNATIONAL LLC, priority 2022, published 2026)
Values joined by “and” are separate entries in the source; they are usually repeats but may differ in a detail not shown here. Equal entries are not always repeated. “Also recorded” adds a separate entry of the source. Where two headings read alike, the source gives them in different places.

Columns and labels:
[1] = tested on: fluorescent AGEs (human serum albumin glycated with D-fructose and glucose); test: Non-enzymatic glycation of HSA, determination of fluorescent AGEs; format: biochemical; settings: for The inhibition rate of fluorescent AGE 360/453 nm (%): single replicate
Procedure: The anti-glycative ability of samples were assessed by measuring the amounts of fluorescent AGEs. 100 μL human serum albumin (4 mg/ml HSA) was glycated with 100 μL D-fructose (0.05 mol/L) and 100 μL glucose (0.05 mol/L) in the presence of samples in potassium phosphate buffer (0.2 mol/L, pH7.4, 0.06% NaN3) and incubated at 50° C. for […]. The incubated solutions were then used for the following assays. Rutin was the positive control.
The fluorescence intensity of the incubated solutions under the λex/λem=360/453 nm was recorded on microplate reader. The inhibition rate of fluorescent AGEs was calculated by the following equation: […]
where A1 is the fluorescence intensity of glycation system without samples; A2 is the fluorescence intensity of glycation system without HSA and samples; A3 is the fluorescence intensity of glycation system with HSA, sugar and samples; and A4 is the fluorescence intensity of glycation system without HSA.

DPPH· scavenging assay = format: biochemical
[2] = FRAP total antioxidant capacity assay; format: biochemical
Procedure: Fast colourimetric methods were slightly modified for the in vitro assessment of DPPH· scavenging, ABTS·+ decolourisation capacity, and total antioxidant capacity of FRAP. The stock solutions of derivatisation reagents were diluted as follows before measurement: DPPH was diluted with absolute ethanol until the absorbance was 0.8±0.05 at λ=517 nm. ABTS working solution was prepared with phosphate buffer (0.2 M, pH 7.4) to display absorbance of 0.8±0.05 at λ=729 nm, based on a previous study. The FRAP solution was prepared according to the instructions of the FRAP kit. Absorbances were measured using an automatic microplate reader (Molecular Group Ltd., USA), and all analyses were performed using 96-well plates. All measurements were performed in triplicate, and Trolox was used as a positive control.
For total antioxidant capacity, 180 μl of FRAP solution was mixed with 5 μl of sample solution, and the absorbance was measured after 5 min at […] with PBS as the negative control. FeSO4 solutions (0.15, 0.3, 0.6, 0.9, 1.2, and 1.5 mM) were used for the calibration curve. The FRAP value represents the corresponding concentration of FeSO4 solutions (mM FeSO4). The regression equation from the standard curve was used to calculate the equivalent concentration 1 (EC1) of each sample. EC1 is defined as the concentration of the test sample with an absorbance equivalent to that of 1.0 mmol/L of FeSO4 solution, determined by its calibration curve.

COX-2 = molecular target: T1, COX-2 (Homo sapiens, UniProt P35354); test: Anti-COX-2 assay (COX-2 Inhibitor Screening Kit); format: biochemical
T1 construct: purchased Beyotime S0168
T1 sequence (P35354 18-604): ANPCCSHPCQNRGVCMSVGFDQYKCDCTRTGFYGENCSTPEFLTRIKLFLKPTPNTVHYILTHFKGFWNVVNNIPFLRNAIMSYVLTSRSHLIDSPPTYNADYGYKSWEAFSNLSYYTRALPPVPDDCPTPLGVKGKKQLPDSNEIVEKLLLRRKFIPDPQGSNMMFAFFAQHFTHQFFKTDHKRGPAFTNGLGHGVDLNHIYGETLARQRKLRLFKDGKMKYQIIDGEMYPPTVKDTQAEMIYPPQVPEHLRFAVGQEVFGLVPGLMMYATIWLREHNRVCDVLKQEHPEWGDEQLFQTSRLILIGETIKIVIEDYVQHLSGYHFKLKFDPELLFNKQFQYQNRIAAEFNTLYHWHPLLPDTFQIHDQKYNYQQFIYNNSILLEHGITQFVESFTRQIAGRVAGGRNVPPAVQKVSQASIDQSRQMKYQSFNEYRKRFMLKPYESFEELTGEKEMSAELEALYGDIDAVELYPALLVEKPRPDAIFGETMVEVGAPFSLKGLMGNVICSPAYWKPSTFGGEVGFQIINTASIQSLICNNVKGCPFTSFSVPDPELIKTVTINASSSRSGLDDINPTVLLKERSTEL
Procedure: Anti-inflammatory activity was assessed by measuring COX-2 enzymatic inhibition on the basis of a described method by using the COX-2 Inhibitor Screening Kit (Beyotime, No. S0168). Celecoxib, a COX-2 inhibitor, was used as a positive control.

[3] = tested on: fluorescent AGEs (BSA-fructose/glucose system); test: Fluorescent AGEs formation in a BSA-fructose/glucose system; format: biochemical, bovine; settings: read-out: IC50, AGE formation
Procedure: The formation of total fluorescent AGEs in glycated samples was assessed by determining their fluorescent intensities at an excitation/emission wavelength of 350/450 nm, as previously described. Glycated protein was prepared in vitro by incubating BSA in the presence of D-glucose (GLC) and D-fructose (FRC). The DOF extract and specific standards were dissolved in DMSO:water (1:4). BSA (4 mg/ml, 100 μl) was preliminary mixed with 50 μl of GLC (0.5 M) and 50 μl of FRC (0.5 M) in 20 mM sodium phosphate buffer (pH 7.4), and then 100 μl samples were added in the 96-well plate and incubated at 37.5° C. for 7 days. All solutions were prepared under sterile conditions and filtered using a 0.22-μm syringe before incubation. The assay was performed in triplicate, and AG was used as a positive control.

[4] = Online UPLC-PDA-MS-ABTS·+ scavenging (post-column derivatisation); format: biochemical; settings: online profiling of DOF extract
Procedure: Online identification of antioxidant components of DOF extract was performed using a UPLC system (Milford, MA, USA) consisting of a Waters photodiode array detector and a Waters postcolumn derivatisation system supplying fresh ABTS solution (UPLC-PDA-QDa-ABTS). […] The detection wavelengths were set at 280 and 734 nm, and the injection volume of the sample was 10 μl.
To detect radical scavengers, the UPLC system was coupled with a Waters pump, which supplied freshly prepared ABTS·+ solution into a reaction coil (15 m, 0.25 mm ID) with a flow rate of 0.2 ml/min at 37° C. Negative peaks were recorded based on a decrease of absorbance at 729 nm after the reaction of individual compounds with the ABTS·+ radical. For preliminary identification of compounds, a Waters Acquity QDa mass detector in negative ionisation mode was connected in series to PDA with the following parameters: electrospray ion source; cone voltage, 15 V; atomiser, N2; and scanning range, 100-800 m/z.

type I collagen [5] = test: Collagen type I in HDFs by immunofluorescence; format: cell-based, human; settings: positive drug, VC 200 μg/ml, 48 h, IF
Procedure: (§1) HDFs were cultured in DMEM with 10% (v/v) FBS and 1% PS at 37° C. in a humidified 5% CO2 incubator. Cells were subcultured using pancreatin solution after reaching confluence. All experiments were performed between the third and eighth passages.
(§2) The synthesis of collagen types I and III was detected using IF and ELISA. HDFs were digested and seeded in a 24-well culture plate on slides at a density of 50,000 cells/well in a complete medium. After reaching 80% confluency, cells were starved with the medium in the absence of serum for 16 h. Cells were then treated with positive controls or active samples (prepared in medium without serum) for an additional 48 h. For analysis and visualisation of types I and III collagens, the supernatants and remaining cell slides were both collected and analysed using ELISA kits and the IF staining method, respectively.
(§3) Collected supernatants were centrifuged at 10,000 rpm for 10 min and used for types I and III collagen ELISA, according to the manufacturer's protocol. The remaining cell slides were washed once with PBS and fixed in polyformaldehyde overnight at 4° C. Subsequently, the slides were treated with 0.5% Triton-X100 for 5 min. After washing, cells were blocked with 1% BSA at room temperature for 1 h. […] ImageJ software was used to quantify collagen expression from different images randomly selected in each group.

type III collagen = test: Collagen type III in HDFs by immunofluorescence; format: cell-based, human; settings: positive drug, VC 200 μg/ml, 48 h, IF
Procedure: as §1, §2, §3

type I collagen [6] = test: Extracellular collagen type I of HDFs by ELISA; format: cell-based, human; settings: VC, 48 h, culture medium
Procedure: as §1, §2, §3

SMILES: C[C@@H]1O[C@@H](OC[C@H]2O[C@@H](Oc3c(-c4ccc(O)c(O)c4)oc4cc(O)cc(O)c4c3=O)[C@H](O)[C@@H](O)[C@@H]2O)[C@H](O)[C@H](O)[C@H]1O [Compound 24, Rutin]
- Average % inhibition ([1]; 3.125 μg/ml): 2.02%
- The inhibition rate of fluorescent AGE 360/453 nm (%) ([1]; 3.125 μg/ml): 2.34% and −3.34% and 7.07%
- Average % inhibition ([1]; 6.25 μg/ml): 22.00%
- The inhibition rate of fluorescent AGE 360/453 nm (%) ([1]; 6.25 μg/ml): 18.13% and 25.69% and 22.17%
- Average % inhibition ([1]; 12.5 μg/ml): 41.15%
- The inhibition rate of fluorescent AGE 360/453 nm (%) ([1]; 12.5 μg/ml): 35.84% and 42.05% and 45.57%
- Average % inhibition ([1]; 25 μg/ml): 61.91%
- The inhibition rate of fluorescent AGE 360/453 nm (%) ([1]; 25 μg/ml): 55.85% and 64.92% and 64.97%
- Average % inhibition ([1]; 50 μg/ml): 75.80%
- The inhibition rate of fluorescent AGE 360/453 nm (%) ([1]; 50 μg/ml): 74.72% and 79.59% and 73.08%
- Average % inhibition ([1]; 100 μg/ml): 81.90%
- The inhibition rate of fluorescent AGE 360/453 nm (%) ([1]; 100 μg/ml): 81.88% and 81.51% and 82.32%
- Average % inhibition ([1]; 200 μg/ml): 85.69%
- The inhibition rate of fluorescent AGE 360/453 nm (%) ([1]; 200 μg/ml): 84.54% and 85.94% and 86.58%
- Average % inhibition ([1]; 400 μg/ml): 91.19%
- The inhibition rate of fluorescent AGE 360/453 nm (%) ([1]; 400 μg/ml): 90.91% and 91.13% and 91.53%
- antioxidant ability by DPPH (in words) (DPPH· scavenging assay): great antioxidant potency
- antioxidant ability by DPPH (in words) (DPPH· scavenging assay; listed as rutin): selective and significant antioxidant abilities
- antioxidant ability by FRAP (in words) [2]: great antioxidant potency
- FRAP EC1 ([2]; Table 11, mean ± SD, n = 3): 205 µM
- antioxidant ability by FRAP (in words) ([2]; listed as rutin): selective and significant antioxidant abilities
- COX-2 inhibition (in words) (COX-2): great COX-2 inhibition; also recorded: outstanding COX-2 inhibitory effects
- COX-2 inhibition (in words) (COX-2; listed as rutin): potent COX-2 inhibitory capacity
- IC50 [3]: 222 ± 13.5 µM
- ABTS radical scavenging by size of negative peaks at 734 nm (in words) [4]: strongest ABTS radical scavengers

SMILES: O=C1O[C@H]([C@@H](O)CO)C(O)=C1O [vitamin C]
- Collagen type I expression, % of control (type I collagen [5]): 190.20 % of control
- Collagen type III expression, % of control (type III collagen): 125.90 % of control
- increase of secreted collagen type I levels (type I collagen [6]): 21.94%
